The text below walks through data of patent US12590091B2, “1H-pyrrolo[3,2-C]pyridine and 1H-pyrrolo[2,3-C]pyridine derivatives as TLR9 inhibitors for the treatment of fibrosis” (BRISTOL-MYERS SQUIBB COMPANY, priority 2020, dated 2026).

Structures are written as SMILES.

This assay concerns the target T1, human TLR9 (Homo sapiens, UniProt Q9NR96).
T1 construct: host or cells: HEK-Blue cells
T1 sequence (Q9NR96 26-1032): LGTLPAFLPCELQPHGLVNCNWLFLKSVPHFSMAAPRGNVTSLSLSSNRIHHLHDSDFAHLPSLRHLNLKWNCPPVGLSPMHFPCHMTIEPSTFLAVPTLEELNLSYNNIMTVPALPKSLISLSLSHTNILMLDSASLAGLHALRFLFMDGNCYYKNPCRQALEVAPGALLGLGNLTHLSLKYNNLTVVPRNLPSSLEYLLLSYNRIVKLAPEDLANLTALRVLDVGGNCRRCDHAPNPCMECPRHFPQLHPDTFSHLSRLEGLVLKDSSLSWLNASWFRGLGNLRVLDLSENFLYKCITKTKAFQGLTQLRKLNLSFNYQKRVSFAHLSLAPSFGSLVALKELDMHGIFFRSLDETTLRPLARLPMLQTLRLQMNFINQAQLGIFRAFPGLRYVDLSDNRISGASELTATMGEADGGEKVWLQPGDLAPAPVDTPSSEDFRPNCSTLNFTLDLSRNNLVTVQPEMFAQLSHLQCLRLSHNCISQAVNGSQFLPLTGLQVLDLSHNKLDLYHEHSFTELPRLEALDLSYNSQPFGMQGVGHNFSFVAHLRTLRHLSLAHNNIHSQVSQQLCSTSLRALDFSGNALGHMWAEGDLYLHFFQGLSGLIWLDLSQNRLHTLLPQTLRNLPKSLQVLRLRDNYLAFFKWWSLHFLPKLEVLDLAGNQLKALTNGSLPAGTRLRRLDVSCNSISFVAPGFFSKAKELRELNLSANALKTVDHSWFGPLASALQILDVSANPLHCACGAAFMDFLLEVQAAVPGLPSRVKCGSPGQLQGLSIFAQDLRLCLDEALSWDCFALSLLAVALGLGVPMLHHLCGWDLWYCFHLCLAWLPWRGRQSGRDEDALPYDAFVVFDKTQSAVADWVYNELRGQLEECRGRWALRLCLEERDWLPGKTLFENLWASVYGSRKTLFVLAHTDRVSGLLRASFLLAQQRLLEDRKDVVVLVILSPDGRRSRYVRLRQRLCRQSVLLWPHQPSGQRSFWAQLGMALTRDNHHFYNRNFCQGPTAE
Description: TLR9 inhibition reporter assay (HEK-Blue cells, SEAP reporter). The settings on record: HEK-Blue cells overexpressing human TLR9, stimulated with ODN2006 5 nM, 22 hour incubation. In kind it is cell-based. A digest of the protocol: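 Compound dose-response (0.05 nM–50 μM final) on agonist-stimulated human TLR9 HEK-Blue cells, 25,000/well, incubated 22 h at 37 °C, 5% CO2. Readout was secreted alkaline phosphatase under an IFN-β minimal promoter with NF-κB/AP-1 sites; inhibition expressed relative to DMSO and reference-inhibitor controls.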
A general note: Reporter assays use an easily measured gene product as a stand-in for the process of interest.

One may read the IC50 as the midpoint of a concentration-inhibition curve.

`CC(C)(O)CN1C2CCC1CN(Cc1ccc(-c3cc4c(cn3)cc(-c3ccc(S(C)(=O)=O)cc3)n4C3CC3)cc1)C2` [Example 121, 1-[3-[[4-[1-cyclopropyl-2-(4-methylsulfonylphenyl)pyrrolo[3,2-c]pyridin-6-yl]phenyl]methyl]-3,8-diazabicyclo[3.2.1]octan-8-yl]-2-methyl-propan-2-ol] returned an IC50 of 129 nM.

As for `Cc1nc(-c2ccc(CN3CCN(CC(C)(C)O)CC3)cc2)cc2c1c(F)c(-c1ccc(S(C)(=O)=O)cc1)n2C` [Example 122, 1-(4-(4-(3-fluoro-1,4-dimethyl-2-(4-(methylsulfonyl)phenyl)-1H-pyrrolo[3,2-c]pyridin-6-yl)benzyl)piperazin-1-yl)-2-methylpropan-2-ol], 103 nM corresponded to half-maximal inhibition (IC50).

In turn, `Cc1nc(-c2ccc(CN3CCN(CC(C)(C)O)CC3)cc2)cc2c1cc(-c1ccc(S(C)(=O)=O)cc1)n2C1CC1` [Example 123, 1-(4-(4-(1-cyclopropyl-4-methyl-2-(4-(methylsulfonyl)phenyl)-1H-pyrrolo[3,2-c]pyridin-6-yl)benzyl)piperazin-1-yl)-2-methylpropan-2-ol] came in with an IC50 of 85 nM.

`Cc1nc(-c2ccc(CN3CCN(CC(C)(C)O)CC3)cc2)cc2c1cc(-c1ccc(S(C)(=O)=O)cc1)n2C(F)F` [Example 124, 1-(4-(4-(1-(difluoromethyl)-4-methyl-2-(4-(methylsulfonyl)phenyl)-1H-pyrrolo[3,2-c]pyridin-6-yl)benzyl)piperazin-1-yl)-2-methylpropan-2-ol] displayed an IC50 of 451 nM.

Regarding `CC(C)N1CCN(Cc2ccc(-c3cc4c(cc(-c5ccc(S(C)(=O)=O)cc5)n4C)c(C(C)(C)O)n3)cc2)CC1` [Example 125, 2-(6-(4-((4-isopropylpiperazin-1-yl)methyl)phenyl)-1-methyl-2-(4-(methylsulfonyl)phenyl)-1H-pyrrolo[3,2-c]pyridin-4-yl)propan-2-ol], half-maximal inhibition (IC50) required 133 nM.

Turning to `CC(C)(O)CN1CCN(Cc2ccc(-c3cc4c(cn3)cc(-c3ccc(S(C)(=O)=O)cc3)n4C3CC3)cc2)CC1` [Example 128, 1-(4-(4-(1-cyclopropyl-2-(4-(methylsulfonyl)phenyl)-1H-pyrrolo[3,2-c]pyridin-6-yl)benzyl)piperazin-1-yl)-2-methylpropan-2-ol], half-maximal inhibition (IC50) was put at 115 nM.

Regarding `CC(C)(O)CCN1CCN(Cc2ccc(-c3cc4c(cn3)cc(-c3ccc(S(C)(=O)=O)cc3)n4C3CC3)cc2)CC1` [Example 129, 4-(4-(4-(1-cyclopropyl-2-(4-(methylsulfonyl)phenyl)-1H-pyrrolo[3,2-c]pyridin-6-yl)benzyl)piperazin-1-yl)-2-methylbutan-2-ol], the IC50 was determined as 118 nM.

In turn, `CC(C)(O)CN1CC2CCC(C1)N2Cc1ccc(-c2cc3c(cn2)cc(-c2ccc(S(C)(=O)=O)cc2)n3C2CC2)cc1` [Example 130, 1-(8-(4-(1-cyclopropyl-2-(4-(methylsulfonyl)phenyl)-1H-pyrrolo[3,2-c]pyridin-6-yl)benzyl)-3,8-diazabicyclo[3.2.1]octan-3-yl)-2-methylpropan-2-ol] had an IC50 of 92 nM.
